From patent US20180250321A1, “COMPOSITIONS AND METHODS FOR RESTORING THE IMMUNE SYSTEM” (ORPHEUS THERAPEUTICS, INC., priority 2017, published 2018)

Key:
NKT cells [1] = test: IFNγ production in mice injected with glycolipid in the presence or absence of GD3 (FIG. 18); type: in vivo, wild-type C57BL/6 mice; settings: C57BL/6 mice
Procedure: OT-0010 is effective at restoring NKT cell function when wild-type C57BL/6 mice were injected intravenously with either αGalCer (KRN7000) or OT-0010 in the presence or absence of GD3.
In addition, the glycolipids of the present invention are able to fully restore IFN-γ levels, and cause a restoration of NKT cells to a Th-1 response profile (FIG. 18). […] When α-GalCer is administered at a dosage of 3 μgm, only 50% NKT cell function is restored (FIG. 25). While not wishing to be bound by theory, the reason why the glycolipids of the present invention are able to restore NKT cells to a Th-1 response profile is because these glycolipids bind more strongly to CD1d. From a thermodynamic perspective, it is impossible for GD3 to displace these glycolipids from CD1d. […] Again, while not wishing to be bound by theory, it is believed that the glycolipids of the present invention bind more strongly to CD1d due to the incorporation of the -phenyl ring to the distal end of the aliphatic carbon chain attached to the amide group connected to the C1 glycoside linkage of the galactose sugar moiety. The terminal fluorine, —OMe, or —CF3 further enhance the binding of the glycolipids of the present invention to CD1d. The results disclosed in FIG. 18 are unexpected.

NKT cells [2] = settings: cited from earlier work

Row | Molecule | IFNγ production (NKT cells [1]; glycolipid + GD3, intravenous) | restoration of IFN-γ levels (NKT cells [2]; FIG. 25, in the presence of GD3) | NKT cell function restored (NKT cells [2]; dosage of 3 μgm, in the presence of GD3, FIG. 25) [%] | IFNγ production (NKT cells [1]; substance alone, intravenous) | α-GalCer-induced cytokine production in vivo (IFN-γ, IL-4, IL-12) (NKT cells [2]; 1 μg α-GalCer intravenously with or without GD3, serum ELISA) | IFN-γ production by NKT cells (NKT cells [2]; FIG. 25, effect of GD3)
1 | CCCCCCCCCCCCCCCCCCCCCCCCCC(=O)N[C@@H](CO[C@H]1O[C@H](CO)[C@H](O)[C@H](O)[C@H]1O)[C@H](O)[C@H](O)CCCCCCCCCCCCCC [α-GalCer] | Inhibition of IFNγ production | does not restore IFN-γ levels | 50 | – | – | –
2 | Ganglioside D3 [GD3] | – | – | – | Inhibition of IFNγ production | inhibits | dramatic decrease in IFN-γ production
